Measurements as given in article PMC6409085, “Three odorant-binding proteins are involved in the behavioral response of Sogatella furcifera to rice plant volatiles” (PeerJ, 2019).
pIC50: −log10 of the molar value. Where “and” joins values, the source holds several entries; their conditions need not be identical. Equal entries are not always repeated.

Assays:
SfurOBP1 = SfurOBP1 (Sogatella furcifera, UniProt V5T8N5); assay: biochemical; assay type: binding; settings: for Fluorescence competitive binding assay, fluorescence intensity: OBP1, three replicate columns
SfurOBP1, sequence (V5T8N5 entry or part of it): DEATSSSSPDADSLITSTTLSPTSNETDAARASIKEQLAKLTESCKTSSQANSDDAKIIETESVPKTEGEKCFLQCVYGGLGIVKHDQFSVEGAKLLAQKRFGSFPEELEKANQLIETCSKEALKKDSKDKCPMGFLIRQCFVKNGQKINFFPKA
Procedure, shortened: (§1)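 1-NPN displacement assay with odorant competitor at 2–20 µM; protein and probe both 2.0 µM at pH 7.4. Ki is calculated from IC50 using the protein/1-NPN dissociation constant.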

SfurOBP11 = SfurOBP11 (Sogatella furcifera, UniProt V5T6E3); assay: biochemical; assay type: binding
SfurOBP11, sequence (V5T6E3 entry or part of it): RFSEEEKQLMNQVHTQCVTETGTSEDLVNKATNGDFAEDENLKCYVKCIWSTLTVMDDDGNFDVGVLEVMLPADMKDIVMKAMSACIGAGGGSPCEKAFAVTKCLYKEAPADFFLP
Procedure, shortened: as §1

SfurOBP2 = SfurOBP2 (Sogatella furcifera, UniProt V5T759); assay: biochemical; assay type: binding
SfurOBP2, sequence (V5T759 entry or part of it): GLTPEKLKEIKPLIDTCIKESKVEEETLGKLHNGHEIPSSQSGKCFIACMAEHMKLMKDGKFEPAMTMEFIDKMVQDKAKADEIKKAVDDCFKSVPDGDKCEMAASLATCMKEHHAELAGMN
Procedure, shortened: as §1

SfurOBP3 = SfurOBP3 (Sogatella furcifera, UniProt V5T818); assay: biochemical; assay type: binding; settings: for Fluorescence competitive binding assay, fluorescence intensity: OBP3, three replicate columns
SfurOBP3, sequence (V5T818 entry or part of it): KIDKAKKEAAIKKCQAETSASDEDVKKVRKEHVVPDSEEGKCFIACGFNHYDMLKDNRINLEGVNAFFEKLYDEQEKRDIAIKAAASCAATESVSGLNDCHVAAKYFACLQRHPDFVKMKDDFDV
Procedure, shortened: as §1

S. furcifera adults = assay: Y-tube olfactometer behavioral trials; assay type: in vivo, Sogatella furcifera; settings: odorant 50 µL/L vs hexane
Procedure, shortened: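 Single S. furcifera adults (2 days post-emergence, starved 0.5 h) chose between odorant (100 µL of 50 µL/L on filter paper) and hexane control in a glass Y-tube, charcoal-filtered humidified air 300 mL/min per arm, 25 ± 1 °C, 50% RH. Choice scored if insect passed half an arm and stayed >1 min within 10 min; 45 insects per compound, chi-squared test.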

Fluorescence competitive binding assay, fluorescence intensity (SfurOBP1; ligand concentration 2 (μM)): 5991 and 6647 and 6019
Fluorescence competitive binding assay, fluorescence intensity (SfurOBP1; ligand concentration 4 (μM)): 9444 and 9717 and 9590
Fluorescence competitive binding assay, fluorescence intensity (SfurOBP1; ligand concentration 6 (μM)): 8928 and 9981 and 10192
Fluorescence competitive binding assay, fluorescence intensity (SfurOBP1; ligand concentration 8 (μM)): 7764 and 12061 and 8808
Fluorescence competitive binding assay, fluorescence intensity (SfurOBP1; ligand concentration 10 (μM)): 10672 and 12757 and 12848
Fluorescence competitive binding assay, fluorescence intensity (SfurOBP1; ligand concentration 12 (μM)): 11226 and 16440 and 11668
Fluorescence competitive binding assay, fluorescence intensity (SfurOBP1; ligand concentration 14 (μM)): 11457 and 12509 and 12654
Fluorescence competitive binding assay, fluorescence intensity (SfurOBP1; ligand concentration 16 (μM)): 9720 and 12853 and 11395
Fluorescence competitive binding assay, fluorescence intensity (SfurOBP1; ligand concentration 18 (μM)): 14020 and 17603 and 13863
Fluorescence competitive binding assay, fluorescence intensity (SfurOBP1; ligand concentration 20 (μM)): 16799 and 14644 and 13556
pIC50 (SfurOBP1; SfurOBP1, protein and 1-NPN both 2.0 µM, competitor 2-20 µM, read-out: IC50): < 4.70
pIC50 (SfurOBP11; SfurOBP11, protein and 1-NPN both 2.0 µM, competitor 2-20 µM, read-out: IC50): < 4.70
Fluorescence intensity, fluorescence competitive binding assay, OBP11 (SfurOBP11; ligand concentration 4, replicate 1): 32002
Fluorescence intensity, fluorescence competitive binding assay, OBP11 (SfurOBP11; ligand concentration 6, replicate 1): 31916
Fluorescence intensity, fluorescence competitive binding assay, OBP11 (SfurOBP11; ligand concentration 8, replicate 1): 31638
Fluorescence intensity, fluorescence competitive binding assay, OBP11 (SfurOBP11; ligand concentration 8, replicate 2): 32522
Fluorescence intensity, fluorescence competitive binding assay, OBP11 (SfurOBP11; ligand concentration 8, replicate 3): 31984
Fluorescence intensity, fluorescence competitive binding assay, OBP11 (SfurOBP11; ligand concentration 10, replicate 1): 34517
Fluorescence intensity, fluorescence competitive binding assay, OBP11 (SfurOBP11; ligand concentration 10, replicate 2): 33120
Fluorescence intensity, fluorescence competitive binding assay, OBP11 (SfurOBP11; ligand concentration 10, replicate 3): 33819
Fluorescence intensity, fluorescence competitive binding assay, OBP11 (SfurOBP11; ligand concentration 12, replicate 3): 31678
Fluorescence intensity, fluorescence competitive binding assay, OBP11 (SfurOBP11; ligand concentration 14, replicate 1): 31889
Fluorescence intensity, fluorescence competitive binding assay, OBP11 (SfurOBP11; ligand concentration 14, replicate 2): 31807
Fluorescence intensity, fluorescence competitive binding assay, OBP11 (SfurOBP11; ligand concentration 14, replicate 3): 32302
Fluorescence intensity, fluorescence competitive binding assay, OBP11 (SfurOBP11; ligand concentration 18, replicate 1): 36648
Fluorescence intensity, fluorescence competitive binding assay, OBP11 (SfurOBP11; ligand concentration 18, replicate 2): 40474
Fluorescence intensity, fluorescence competitive binding assay, OBP11 (SfurOBP11; ligand concentration 18, replicate 3): 36079
Fluorescence intensity, fluorescence competitive binding assay, OBP11 (SfurOBP11; ligand concentration 20, replicate 1): 36041
Fluorescence intensity, fluorescence competitive binding assay, OBP11 (SfurOBP11; ligand concentration 20, replicate 2): 35048
Fluorescence intensity, fluorescence competitive binding assay, OBP11 (SfurOBP11; ligand concentration 20, replicate 3): 35313
pIC50 (SfurOBP2; SfurOBP2, protein and 1-NPN both 2.0 µM, competitor 2-20 µM, read-out: IC50): < 4.70
Fluorescence competitive binding assay, OBP2 (raw fluorescence reading) (SfurOBP2; ligand concentration 2 (unit not given), replicate column 1 of 3): 15175
Fluorescence competitive binding assay, OBP2 (raw fluorescence reading) (SfurOBP2; ligand concentration 2 (unit not given), replicate column 2 of 3): 15154
Fluorescence competitive binding assay, OBP2 (raw fluorescence reading) (SfurOBP2; ligand concentration 2 (unit not given), replicate column 3 of 3): 16258
Fluorescence competitive binding assay, OBP2 (raw fluorescence reading) (SfurOBP2; ligand concentration 4 (unit not given), replicate column 1 of 3): 15758
Fluorescence competitive binding assay, OBP2 (raw fluorescence reading) (SfurOBP2; ligand concentration 4 (unit not given), replicate column 2 of 3): 17105
Fluorescence competitive binding assay, OBP2 (raw fluorescence reading) (SfurOBP2; ligand concentration 4 (unit not given), replicate column 3 of 3): 16490
Fluorescence competitive binding assay, OBP2 (raw fluorescence reading) (SfurOBP2; ligand concentration 6 (unit not given), replicate column 1 of 3): 15945
Fluorescence competitive binding assay, OBP2 (raw fluorescence reading) (SfurOBP2; ligand concentration 6 (unit not given), replicate column 2 of 3): 16570
Fluorescence competitive binding assay, OBP2 (raw fluorescence reading) (SfurOBP2; ligand concentration 6 (unit not given), replicate column 3 of 3): 19054
Fluorescence competitive binding assay, OBP2 (raw fluorescence reading) (SfurOBP2; ligand concentration 8 (unit not given), replicate column 1 of 3): 15963
Fluorescence competitive binding assay, OBP2 (raw fluorescence reading) (SfurOBP2; ligand concentration 8 (unit not given), replicate column 2 of 3): 18724
Fluorescence competitive binding assay, OBP2 (raw fluorescence reading) (SfurOBP2; ligand concentration 8 (unit not given), replicate column 3 of 3): 18059
Fluorescence competitive binding assay, OBP2 (raw fluorescence reading) (SfurOBP2; ligand concentration 10 (unit not given), replicate column 1 of 3): 16134
Fluorescence competitive binding assay, OBP2 (raw fluorescence reading) (SfurOBP2; ligand concentration 10 (unit not given), replicate column 2 of 3): 18215
Fluorescence competitive binding assay, OBP2 (raw fluorescence reading) (SfurOBP2; ligand concentration 10 (unit not given), replicate column 3 of 3): 19226
Fluorescence competitive binding assay, OBP2 (raw fluorescence reading) (SfurOBP2; ligand concentration 12 (unit not given), replicate column 1 of 3): 15563
Fluorescence competitive binding assay, OBP2 (raw fluorescence reading) (SfurOBP2; ligand concentration 12 (unit not given), replicate column 2 of 3): 19243
Fluorescence competitive binding assay, OBP2 (raw fluorescence reading) (SfurOBP2; ligand concentration 12 (unit not given), replicate column 3 of 3): 19003
Fluorescence competitive binding assay, OBP2 (raw fluorescence reading) (SfurOBP2; ligand concentration 14 (unit not given), replicate column 1 of 3): 19071
Fluorescence competitive binding assay, OBP2 (raw fluorescence reading) (SfurOBP2; ligand concentration 14 (unit not given), replicate column 2 of 3): 18512
Fluorescence competitive binding assay, OBP2 (raw fluorescence reading) (SfurOBP2; ligand concentration 14 (unit not given), replicate column 3 of 3): 18689
Fluorescence competitive binding assay, OBP2 (raw fluorescence reading) (SfurOBP2; ligand concentration 16 (unit not given), replicate column 1 of 3): 17244
Fluorescence competitive binding assay, OBP2 (raw fluorescence reading) (SfurOBP2; ligand concentration 16 (unit not given), replicate column 2 of 3): 19263
Fluorescence competitive binding assay, OBP2 (raw fluorescence reading) (SfurOBP2; ligand concentration 16 (unit not given), replicate column 3 of 3): 18663
Fluorescence competitive binding assay, OBP2 (raw fluorescence reading) (SfurOBP2; ligand concentration 18 (unit not given), replicate column 1 of 3): 23408
Fluorescence competitive binding assay, OBP2 (raw fluorescence reading) (SfurOBP2; ligand concentration 18 (unit not given), replicate column 2 of 3): 23725
Fluorescence competitive binding assay, OBP2 (raw fluorescence reading) (SfurOBP2; ligand concentration 18 (unit not given), replicate column 3 of 3): 20804
Fluorescence competitive binding assay, OBP2 (raw fluorescence reading) (SfurOBP2; ligand concentration 20 (unit not given), replicate column 1 of 3): 16894
Fluorescence competitive binding assay, OBP2 (raw fluorescence reading) (SfurOBP2; ligand concentration 20 (unit not given), replicate column 2 of 3): 20680
Fluorescence competitive binding assay, OBP2 (raw fluorescence reading) (SfurOBP2; ligand concentration 20 (unit not given), replicate column 3 of 3): 19308
Fluorescence competitive binding assay, fluorescence intensity (SfurOBP3; ligand concentration 2): 35042 and 35938 and 36236
Fluorescence competitive binding assay, fluorescence intensity (SfurOBP3; ligand concentration 4): 33936 and 35041 and 36163
Fluorescence competitive binding assay, fluorescence intensity (SfurOBP3; ligand concentration 6): 30371 and 31101 and 32222
Fluorescence competitive binding assay, fluorescence intensity (SfurOBP3; ligand concentration 8): 32781 and 31040 and 32847
Fluorescence competitive binding assay, fluorescence intensity (SfurOBP3; ligand concentration 10): 31032 and 32369 and 33307
Fluorescence competitive binding assay, fluorescence intensity (SfurOBP3; ligand concentration 12): 29013 and 34433 and 32292
Fluorescence competitive binding assay, fluorescence intensity (SfurOBP3; ligand concentration 14): 31092 and 30872 and 34922
Fluorescence competitive binding assay, fluorescence intensity (SfurOBP3; ligand concentration 16): 33838 and 32037 and 30214
Fluorescence competitive binding assay, fluorescence intensity (SfurOBP3; ligand concentration 18): 37931 and 38340 and 38776
Fluorescence competitive binding assay, fluorescence intensity (SfurOBP3; ligand concentration 20): 37363 and 39141 and 38102
binding affinity to SfurOBP3 (in words) (SfurOBP3; SfurOBP3): high binding affinities
pIC50 (SfurOBP3; SfurOBP3, protein and 1-NPN both 2.0 µM, competitor 2-20 µM, read-out: IC50): < 4.70
Structure (SMILES): C=C/C(C)=C/C/C=C(\C)CCC=C(C)C [α-farnesene]
behavioral response of S. furcifera (in words) (S. furcifera adults): strongly attracted
number of insects choosing hexane arm (S. furcifera adults; adults): 10
number of insects choosing volatilies arm (S. furcifera adults; adults): 25
number of insects failed (no choice) (S. furcifera adults; adults): 5
